Results taken from BindingDB's records for doi:10.1021/jf901979k (University of Lleida, 2009).

Test: Inhibition of esterase in male Ostrinia nubilalis (European corn borer) antenna

IC50 | Structure (SMILES)
7.5 µM | CC/C=C\CCCCCCCCCC(=O)C(F)(F)F [(Z)-10-tridecenyl trifluoromethyl ketone]
0.28 µM | CC/C=C\CCCCCCCCCCC(=O)C(F)(F)F [(Z)-11-tetradecenyl trifluoromethyl ketone]
